Data as given in patent publication US10280158B2, “Immune adjustment compound, use thereof and pharmaceutical composition comprising same” (SUZHOU CONNECT BIOPHARMACEUTICALS, LTD., priority 2013, dated 2019).

Columns and labels:
[1] = In vivo pharmacokinetic experiment, intravenous administration; parameters: species or system Sprague Dawley rats
Method: In this Example, the pharmacokinetic properties of compounds 1, 2, 3, 4 and 5 were evaluated via. i.v. and p.o. dosing to Sprague Dawley rats.
Experimental animals used in this Example and hereinafter were male SD rats of 7-9 weeks old, with body weight ranging from 186 to 231 g, which were purchased from Beijing Vital River Laboratory Animal Technology Co., Ltd. The animals were quarantined by veterinarian for 5 days after purchase, then animals had passed quarantine inspection were selected to be tested under SPE conditions, wherein the tested animals are assigned into 3 rats per group as follows.
Intravenous administration group: 1.61 mg of each of compounds 1-5 was respectively prepared into a solution of 1 mg/mL by using 1.610 mL 10% HP-β-CD as a diluent. Each solution was vortexed 1-2 mins after mixed fully, and then was ultrasonically treated for 28-30 mins. The obtained solution was used as medicine administrated to intravenous administration group, and the administration was conducted with a dose of 1 mL/kg body weight of each rat.
For both oral administration group and intravenous administration group, blood samples were collected at 0.0833 h (5 min), 0.25 h (15 min), 0.5 h, 1 h, 2 h, 4 h, 8 h, and 24 h after administration. After isoflurane anesthesia 0.3 mL whole blood was collected from orbital venous plexus of the animals at each time point. The animals would be euthanized after all samples were collected.
The collected blood samples were placed in EP tubes containing heparin sodium (about 10 μl, 1000 IU/mL), which were then placed in trash ice immediately, and centrifuged at 4,000 rpm and a low temperature (4° C.) for 5 minutes. The plasma was isolated rapidly and then stored at −20° C. until analysis.
The concentration of each compound in blood was measured by LC-MS/MS-001 (Q-trap-3200) with osalmide as internal standard material, as follows. 24 μL blank plasma was added into 6 μL plasma sample (5 times of dilution), and then a solution of acetonitrile containing 150 μL internal standard material (osalmide in 100 μg/mL) was added in. The mixture was shaken for 5 minutes, and then centrifuged at 4,000 rpm for 5 minutes. 2 μL of the obtained sample was implanted into LC-MS/MS for analysis. As for undiluted plasma sample, 30 μL of it was added into a solution of acetonitrile containing 150 μL internal standard material (osalmide in 100 μg/mL). The mixture was shaken for 5 minutes, and then centrifuged at 4,000 rpm for 5 minutes. 2 μL of the obtained sample was implanted into LC-MS/MS for analysis.
As for data analysis, WinNolin (V6.2) non-compartment model (NCA) was used for calculating main metabolic pharmacokinetic parameters including t1/2, AUC(0−t), AUCinf, V, Cl, MRT, etc., and Microsoft Office EXCEL was used for calculating mean values, standard deviations and coefficients of variation.

human S1P1 = target: T1, human S1P1 (Homo sapiens, UniProt P21453); test: Internalization effect experiment on S1P1 (CHO-S cells, Myc tag, flow cytometry); format: cell-based
T1 construct: expressed in transfected cells; host or cells: CHO-S cells
T1 sequence (P21453 whole entry): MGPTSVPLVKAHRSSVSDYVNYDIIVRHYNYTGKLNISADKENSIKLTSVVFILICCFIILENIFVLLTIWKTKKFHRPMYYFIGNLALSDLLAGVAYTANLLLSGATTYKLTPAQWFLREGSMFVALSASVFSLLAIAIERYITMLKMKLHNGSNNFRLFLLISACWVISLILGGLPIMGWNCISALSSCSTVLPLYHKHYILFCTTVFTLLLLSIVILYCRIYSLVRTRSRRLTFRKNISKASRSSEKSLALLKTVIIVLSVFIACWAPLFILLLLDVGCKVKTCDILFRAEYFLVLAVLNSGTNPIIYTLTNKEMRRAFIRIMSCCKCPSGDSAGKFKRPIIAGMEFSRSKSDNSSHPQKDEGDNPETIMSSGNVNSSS
From the text: It is well known that S1P1 small molecule agonists can prevent lymphocytes from entering the peripheral circulation by inducing internalization of S1P1 on cell surface. In order to determine whether the compounds provided by present invention have an activity of inducing S1P1 internalization, CHO—S cells expressing human S1P1, to replace the lymphocytes, are used as detection system of S1P1 internalization. For ease of monitoring the S1P1 on cell surface, a Myc tag is fused to N-terminal of S1P1, thus the expression of S1P1 is analyzed by flow cytometry after incubating the cells with fluorescent-labeled antibody against the Myc tag.
A 10 mM stock solution was prepared by dissolving compound 2 provided by the present invention in dimethyl sulfoxide (DMSO), and then the stock solution was diluted to different concentrations as desired with DMEM. CHO—S cells bearing human S1P1 with Myc tag were harvested and then adjusted to a density of one million cells per mL by Dulbecco's modified Eagle's medium (DMEM). Different concentrations of Compound 2 diluted in an equal volume were mixed and the cell suspension and then incubated at 37° C. for 1 hour. After incubation, the mixture was centrifuged at 800 RPM for 5 minutes to obtain the cells. The cells were resuspended in FACS buffer (PBS containing 1% BSA), and Myc antibody labelled with fluorescein isothiocyanate (FITC) (from Californian Miltenyi Biotec GmbH, USA) was added in and incubated for 1 hour on ice. The cells were washed, resuspended in pre-cooled FACS buffer and analysed by FACS Calibur flow cytometry.

[2] = test system: Collagen Type II-Induced Arthritis; test: Collagen type II-induced arthritis (rat CIA model); format: in vivo, Lewis rats; conditions: oral, 1 mg/kg
Method: To perform the testing, Lewis rats were induced to develop the disease as follows. Rats were anesthetized with isoflurane and were injected intradermally with a total of 0.5 mL CII/CFA emulsion. The emulsion was injected at 3 sites, one site at the base of the tail (0.1 mL), and the other two sites (0.2 mL/site) on the back of the rat near to the base of the tail. An identical booster injection was given i.d. at 7 days after the primary immunization avoiding previous injection sites.
The positive control group was given TOFACITINIB orally on day 12 after sensitization. The severity of arthritis in four paws was scored 2 times per week starting on day 7 after sensitization. The criteria was as follows: score 0: No evidence of erythema and swelling; score 1: Erythema and mild swelling confined to the mid-foot (tarsals) or ankle joint; score 2: Erythema and mild swelling extending from the ankle to the mid-foot; score 3: Erythema and moderate swelling extending from the ankle to the metatarsal joints; score 4: Erythema and severe swelling encompass the ankle, foot, and digits. Joint swelling, measured by the volume of hind paws using Plethysmometer, was determined on Day 0, and then 2 times per week from Day 7 to Day 28. Destruction of the joint was determined by X-Ray examination on Day 28.

[3] = test system: experimental autoimmune encephalomyelitis (EAE); test: Experimental autoimmune encephalomyelitis (EAE) model; format: in vivo; conditions: oral, 0.03, 0.1 and 1 mg/kg, Day 0 to Day 30, C57BL/6 mice
[4] = intravenous administration, rats, in words
[5] = male, Sprague-Dawley, rat, plasma, intravenous administration (1 mg/kg), SD rats

mean residence time (MRT) compared with compound 1 [1, 4]: reduced significantly | terminal half-life compared with compound 1 [1, 4]: reduced significantly | AUC(0-inf) [1, 5]: 2010 ± 146 ng·h/mL | MRT inf [1, 5]: 6.28 ± 0.44 h | clearance [1, 5]: 8.32 mL/min/kg | half-life ([1]; male, Sprague-Dawley, rat, plasma, intravenous administration (1 mg/kg), SD rats, read-out: T½ (converted)): 5.47 ± 0.42 h | Vd ([1]; male, Sprague-Dawley, rat, plasma, intravenous administration (1 mg/kg), SD rats, read-out: Vss): 3.12 ± 0.101 L/kg | EC50 (human S1P1; CHO-S cells expressing human S1P1, 1 hour at 37° C., read-out: Receptor Internalization (EC50) S1P1): 9.83 nM | activity of inducing S1P1 internalization (human S1P1; CHO-S cells expressing human S1P1, in words): dose-dependent manner
SMILES: CC(C)Cc1ccc(-c2nc(-c3ccc(CN4CC(C(=O)O)C4)c(F)c3)no2)cc1 [Compound 2, 1-{2-fluoro-4-[5-(4-isobutylphenyl)-1,2,4-oxadiazol-3-yl]-benzyl}-3-azetidine carboxylic acid]
development of arthritis based on joint swelling ([2]; Lewis rats, FIG. 5): effective in inhibiting the development of arthritis | development of arthritis based on destruction of joint structure ([2]; X-Ray on Day 28, Lewis rats, FIG. 6): effective in inhibiting the development of arthritis | development of EAE (clinical score) [3]: effectively inhibited development of EAE
